Assays:
α5 GABAA receptors = molecular target: T1, α5 GABAA receptors (Mus musculus, UniProt P22723+Q8BHJ7); test: α-Me-5HT-induced itch (cheek injection) in RRRH triple point-mutated mice (α5 only); assay type: in vivo, mice (129X1/SvJ genetic background); conditions: DZP 10 mg/kg per oral 1 h before 20 μg α-Me-5HT, 20 min
T1 construct: endogenous in cells; host or cells: living triple point-mutated mice with only α5 diazepam-sensitive
Method: (§1) Because mice of this particular genetic background (129SvJ) have not yet been systematically analyzed in itch experiments, the inventors first assessed the sensitivity of these mice to a battery of pruritogens injected into the right cheek.
(§2) Acute itch was assessed in mice that received intradermal microinjections of pruritogens or 0.9% saline into the right cheek, which had been shaved at least one day before the experiment. In two sets of experiments that addressed the contribution of GABAARs in primary and secondary pruritoceptors, pruritogens were injected in the right thigh (FIG. 17). Before injection, mice were acclimatized to a 15 cm diameter cylindrical enclosure for more than 30 min with cage bedding on the ground. Background white noise generated by a radio in the room at ambient volume was applied to prevent auditory distraction. […] Videos were analyzed off-line. Scratching of the hind paw directed to the ipsilateral cheek was counted in bouts, with one scratching bout defined as an instance when the mouse lifted its paw to scratch until it returned the paw to the cage floor. In case of experiments in which the pruritogen was injected in the skin of the thigh, the time spent biting the injected skin area was counted in s/min as a measure of itch.

[1] = tested on: α2, α3 or α5 GABAA receptors; test: oxazolone contact dermatitis model of chronic itch in GABAAR triple point-mutated mice; assay type: in vivo, mice (129X1/SvJ genetic background); conditions: 10 mg/kg i.p. on day 18; recorded 4 hours after injection
α2 GABAA receptors = molecular target: T2, α2 GABAA receptors (Mus musculus, UniProt P22723+P26048); test: α-Me-5HT-induced itch (cheek injection) in RHRR triple point-mutated mice (α2 only); assay type: in vivo, mice (129X1/SvJ genetic background)
T2 construct: endogenous in cells; host or cells: living RHRR triple point-mutated mice (129X1/SvJ)
T2 sequence (P26048 29-451): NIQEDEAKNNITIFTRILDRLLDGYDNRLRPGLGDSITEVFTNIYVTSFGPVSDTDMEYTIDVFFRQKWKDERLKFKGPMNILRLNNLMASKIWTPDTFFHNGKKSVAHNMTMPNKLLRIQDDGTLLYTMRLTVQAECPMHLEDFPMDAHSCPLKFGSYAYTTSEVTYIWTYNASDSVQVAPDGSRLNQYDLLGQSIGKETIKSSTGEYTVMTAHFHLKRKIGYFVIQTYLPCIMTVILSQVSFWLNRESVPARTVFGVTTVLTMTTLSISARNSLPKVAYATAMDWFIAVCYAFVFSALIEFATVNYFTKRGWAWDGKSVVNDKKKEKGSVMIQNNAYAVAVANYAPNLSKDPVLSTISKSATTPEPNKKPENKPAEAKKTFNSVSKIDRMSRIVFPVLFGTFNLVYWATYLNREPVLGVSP
T2 sequence (P63080 26-473 partner): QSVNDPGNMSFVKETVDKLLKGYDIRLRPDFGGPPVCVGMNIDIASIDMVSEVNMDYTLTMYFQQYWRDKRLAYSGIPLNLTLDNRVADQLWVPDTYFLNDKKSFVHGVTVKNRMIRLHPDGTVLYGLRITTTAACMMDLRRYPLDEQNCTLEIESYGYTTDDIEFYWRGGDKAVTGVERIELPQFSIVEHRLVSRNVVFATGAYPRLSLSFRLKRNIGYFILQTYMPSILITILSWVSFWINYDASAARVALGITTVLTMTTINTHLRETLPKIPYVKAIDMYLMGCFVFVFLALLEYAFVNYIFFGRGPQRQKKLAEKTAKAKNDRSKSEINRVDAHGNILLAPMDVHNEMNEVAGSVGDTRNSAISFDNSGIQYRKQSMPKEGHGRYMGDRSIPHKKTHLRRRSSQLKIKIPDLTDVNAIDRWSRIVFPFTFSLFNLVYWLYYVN
T2 sequence (P22723 39-474): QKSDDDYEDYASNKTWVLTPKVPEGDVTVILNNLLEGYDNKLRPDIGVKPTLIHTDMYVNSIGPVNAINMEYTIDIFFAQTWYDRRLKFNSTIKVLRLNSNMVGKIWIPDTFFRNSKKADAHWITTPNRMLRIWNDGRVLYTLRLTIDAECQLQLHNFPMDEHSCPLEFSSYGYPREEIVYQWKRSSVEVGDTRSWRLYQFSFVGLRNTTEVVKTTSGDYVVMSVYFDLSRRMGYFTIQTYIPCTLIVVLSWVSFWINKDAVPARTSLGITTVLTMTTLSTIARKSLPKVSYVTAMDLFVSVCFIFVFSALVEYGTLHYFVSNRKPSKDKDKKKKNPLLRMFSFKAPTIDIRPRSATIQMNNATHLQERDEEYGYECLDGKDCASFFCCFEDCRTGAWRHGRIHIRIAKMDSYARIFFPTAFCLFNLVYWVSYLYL
Method: as §1, §2

α3 GABAA receptors = molecular target: T3, α3 GABAA receptors (Mus musculus, UniProt P22723+P26049); test: α-Me-5HT-induced itch (cheek injection) in RRHR triple point-mutated mice (α3 only); assay type: in vivo, mice (129X1/SvJ genetic background)
T3 construct: endogenous in cells; host or cells: living RRHR triple point-mutated mice (129X1/SvJ)
T3 sequence (P26049 29-492): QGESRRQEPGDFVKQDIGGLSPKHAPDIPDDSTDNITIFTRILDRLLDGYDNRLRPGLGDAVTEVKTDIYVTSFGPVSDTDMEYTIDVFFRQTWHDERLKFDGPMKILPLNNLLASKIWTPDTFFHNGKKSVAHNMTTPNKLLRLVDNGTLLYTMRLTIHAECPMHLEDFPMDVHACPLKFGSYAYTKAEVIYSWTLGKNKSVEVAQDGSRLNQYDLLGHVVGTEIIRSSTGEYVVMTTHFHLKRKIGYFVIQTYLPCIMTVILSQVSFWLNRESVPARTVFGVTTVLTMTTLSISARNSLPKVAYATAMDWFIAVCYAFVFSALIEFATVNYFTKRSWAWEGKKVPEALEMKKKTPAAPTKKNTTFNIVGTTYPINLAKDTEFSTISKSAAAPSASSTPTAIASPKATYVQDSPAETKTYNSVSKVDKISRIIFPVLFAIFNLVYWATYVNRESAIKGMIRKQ
T3 sequence (P63080 26-473 partner): as the sequence (P63080 26-473 partner) above
T3 sequence (P22723 39-474): as the sequence (P22723 39-474) above
Method: as §1, §2

[2] = tested on: contact dermatitis-induced chronic itch; test: oxazolone contact dermatitis model of chronic itch in wild-type mice; assay type: in vivo, wild-type C57BL6/J mice; conditions: 10 mg/kg i.p. on day 18; 15 to 210 min after injection
Method: Thus, TPA023B is, in accordance with the other findings of the inventors, suitable as an antipruritic substance.
This was independent of the treatment they received from day 7 to day 27.
The inventors sought to confirm the antipruritic efficacy of α2 and α3 GABAA receptor agonists against contact dermatitis-induced chronic itch. To this end, N-desmethyl clobazam, a benzodiazepine with improved activity at α2 versus α1 was assessed for its antipruritic effects (Jensen et al. PLoS One. 2014 Feb. 12; 9(2):e88456.).
Chronic itch was investigated in the contact dermatitis model (Kido-Nakahara, M., et al. J Clin Invest, 2014, 124, 2683-2695). Mice were treated once with 10% oxazolone in acetone/olive oil (4:1 v/v) on the shaved nape of the neck (100 μl) on day 0. After a resting period of 7 days, mice were treated with 1% oxazolone in acetone/olive oil (4:1 v/v) on the nape of the neck (100 μl) every other day for 10 days. On the day of the experiment, mice were injected with drug or vehicle i.p. under short and light isoflurane anesthesia. […]

α3 GABAA receptor = molecular target: T4, α3 GABAA receptor (Mus musculus, UniProt P22723+P26049, H154R); test: α-Me-5HT-induced itch in HHRH mice (α3-GABAAR DZP-insensitive); assay type: in vivo; conditions: 10 mg/kg per oral 1 h before 20 μg α-Me-5HT; 20 min
T4 construct: endogenous in cells; host or cells: living HHRH single point-mutated mice (knock-in)
T4 sequence (P26049 29-492 H154R): as the sequence (P26049 29-492) above, with H126R counted along it
T4 sequence (P63080 26-473 partner): as the sequence (P63080 26-473 partner) above
T4 sequence (P22723 39-474): as the sequence (P22723 39-474) above
Method: Wild-type and GABAAR single point mutated mice in which only α3 is rendered DZP-insensitive (HHRH mice) received per oral injection of 10 mg/kg TP003 or vehicle. One hour after injection, the mice received a 20 μg α-Me-5HT cheek injection to elicit itching. Over the course of twenty minutes scratching bouts directed at the ipsilateral cheek were recorded and TP003 injected mice compared with vehicle injected control mice (FIGS. 8A & 8B).
as §2, with “ground.” for “ground. Background white noise generated by a radio in the room at ambient volume was applied to prevent auditory distraction.”

α-Me-5HT-induced itch = test: α-methyl 5-HT-induced itch (cheek injection) in wild-type mice; assay type: in vivo, wild-type mice (129X1/SvJ)
[3] = tested on: brain membranes prepared from α1,2,3,5 H→R point mutated mice; assay type: binding, mice (RRRR); conditions: 4 nM [3H]Ro 15-4513; increasing concentrations; n=4
Method: The supernatant was centrifuged for 20 min at 30,000 g and the resulting crude membrane pellet was washed once with buffer. […] Non-specific [^3H]Ro 15-4513 binding was assessed by addition of 10 μM flumazenil to the reaction. Incubation was stopped by rapid vacuum filtration using a semiautomatic cell harvester (Skatron Instruments) and washed filters were subjected to liquid scintillation counting.

chloroquine-induced itch = chloroquine-induced itch (cheek injection) in wild-type mice; assay type: in vivo, wild-type C57BL6/J mice; conditions: 30 mg/kg intraperitoneal; 100 μg chloroquine; 30 min
Method: as §2, with “distraction. A 30 gauge needle was inserted bevel-up and pushed 5 mm horizontally into the skin beyond the point of insertion, before injection of the pruritogen (in a total volume of 10 μl). No anesthesia was used. Correct injection was confirmed by the appearance of a slightly domed bulla upon injection.” for “distraction.”

T1 sequence (Q8BHJ7 32-463 limits assumed): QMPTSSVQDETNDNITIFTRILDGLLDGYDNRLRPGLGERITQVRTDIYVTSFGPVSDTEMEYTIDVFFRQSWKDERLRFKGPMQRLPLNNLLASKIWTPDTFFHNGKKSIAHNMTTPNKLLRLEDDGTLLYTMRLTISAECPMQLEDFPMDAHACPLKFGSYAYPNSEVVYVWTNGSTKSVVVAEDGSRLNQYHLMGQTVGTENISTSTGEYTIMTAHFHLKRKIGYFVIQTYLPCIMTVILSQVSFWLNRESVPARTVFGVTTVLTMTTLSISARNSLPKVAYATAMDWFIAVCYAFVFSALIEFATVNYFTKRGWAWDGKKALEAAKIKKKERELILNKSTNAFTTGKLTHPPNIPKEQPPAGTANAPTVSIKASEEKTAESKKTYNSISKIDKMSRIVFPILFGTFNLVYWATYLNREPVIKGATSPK
T1 sequence (P63080 26-473 partner): as the sequence (P63080 26-473 partner) above
T1 sequence (P22723 39-474): as the sequence (P22723 39-474) above

Compound: CN1C(=O)CN=C(c2ccccc2)c2cc(Cl)ccc21 [DZP, Diazepam]
- scratching bouts directed at the ipsilateral cheek vs vehicle (α5 GABAA receptors): no significant reduction in scratching bouts
- number of scratching bouts directed at the nape of the neck vs vehicle [1]: significant reduction in the number of scratching bouts
- scratching bouts directed at the ipsilateral cheek vs vehicle (α2 GABAA receptors; RHRR mice (α2 only), DZP 10 mg/kg per oral 1 h before 20 μg α-Me-5HT, 20 min): significant reduction of scratching bouts
- dose-response of scratching bouts (α2 GABAA receptors; RHRR mice, 0.1, 0.3, 1, 3, 10 and 30 mg/kg per oral 1 h before 20 μg α-Me-5HT, 30 min): dose-dependent reduction of scratching bouts
- dose-dependence of antipruritic effects (α3 GABAA receptors; RRHR mice (FIG. 2C), oral DZP 1 h before 20 μg α-Me-5HT): dose-dependent antipruritic effects
- scratching bouts directed at the ipsilateral cheek vs vehicle (α3 GABAA receptors; RRHR mice (α3 only), DZP 10 mg/kg per oral 1 h before 20 μg α-Me-5HT, 20 min): significant reduction of scratching bouts

Compound: O=C1CC(=O)N(c2ccccc2)c2cc(Cl)ccc2N1 [NDMC, N-desmethyl clobazam]
- scratching bouts directed at the nape of the neck vs vehicle [2]: significant reduction in scratching bouts

Compound: CC(C)(O)c1ccn2c(-c3ccc(F)c(-c4ccc(F)cc4C#N)c3)cnc2c1F [TP003, 4,2′-difluoro-5′-[8-fluoro-7-(1-hydroxy-1-methylethyl)imidazo[1,2-a]pyridin-3-yl]biphenyl-2-carbonitrile]
- antipruritic effect in HHRH mice (α3 GABAA receptor): absent
- scratching bouts directed at the ipsilateral cheek vs vehicle (α-Me-5HT-induced itch; wild-type 129X1/SvJ mice, 10 mg/kg per oral 1 h before 20 μg α-Me-5HT, 20 min): significant reduction of scratching bouts

Compound: CC(C)(C)OC(=O)c1ncn2c1[C@@H]1CCCN1C(=O)c1c(Br)cccc1-2 [bretazenil]
- displacement of [3H]Ro 15-4513 binding [3]: dose-dependently inhibited

Compound: CC(=O)[C@H]1CC[C@H]2[C@@H]3CC[C@H]4C[C@](C)(O)CC[C@]4(C)[C@H]3CC[C@]12C [ganaxolone]
- number of scratching bouts vs vehicle (chloroquine-induced itch): significant reduction in number scratching bouts

Compound: CC(N)Cc1c[nH]c2ccc(O)cc12 (stereo not drawn) [α-methyl 5-HT, α-methyl-5-hydroxy-tryptamine]
- scratching behavior directed to the injected site (α-Me-5HT-induced itch; different doses injected into the right cheek, wild-type 129X1/SvJ, 30 min): dose-dependent robust scratching behavior
